# In PubChem BioAssay (NCI):
#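 Each compound was tested at five concentrations against cells in 96-well plates for 48 hours. TGI marks complete inhibition of growth.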
# How the values were obtained:
# Test in all cases: DTP human tumour cell line panel, 48 h
# 786-0 renal = test system: 786-0 renal
# A549 NSCLC = test system: A549 NSCLC
# ACHN renal = test system: ACHN renal
# BT-549 breast = test system: BT-549 breast
# CAKI-1 renal = test system: CAKI-1 renal
# COLO 205 colon = test system: COLO 205 colon
# DU-145 prostate = test system: DU-145 prostate
# HCT-116 colon = test system: HCT-116 colon
# HCT-15 colon = test system: HCT-15 colon
# HOP-62 NSCLC = test system: HOP-62 NSCLC
# K-562 leukemia = test system: K-562 leukemia
# KM12 colon = test system: KM12 colon
# MCF7 breast = test system: MCF7 breast
# MDA-N = test system: MDA-N
# MOLT-4 leukemia = test system: MOLT-4 leukemia
# NCI-H23 lung = test system: NCI-H23 lung
# OVCAR-3 ovarian = test system: OVCAR-3 ovarian
# OVCAR-5 ovarian = test system: OVCAR-5 ovarian
# OVCAR-8 ovarian = test system: OVCAR-8 ovarian
# PC-3 prostate = test system: PC-3 prostate
# RPMI-8226 leukemia = test system: RPMI-8226 leukemia
# SF-295 CNS = test system: SF-295 CNS
# SK-MEL-2 melanoma = test system: SK-MEL-2 melanoma
# SK-MEL-5 melanoma = test system: SK-MEL-5 melanoma
# SNB-19 CNS = test system: SNB-19 CNS
# UACC-257 melanoma = test system: UACC-257 melanoma
# UACC-62 melanoma = test system: UACC-62 melanoma
# UO-31 renal = test system: UO-31 renal
# A498 renal = test system: A498 renal
# CCRF-CEM leukemia = test system: CCRF-CEM leukemia
# EKVX NSCLC = test system: EKVX NSCLC
# HL-60(TB) leukemia = test system: HL-60(TB) leukemia
# HOP-92 NSCLC = test system: HOP-92 NSCLC
# HT29 colon = test system: HT29 colon
# IGROV1 ovarian = test system: IGROV1 ovarian
# LOX IMVI melanoma = test system: LOX IMVI melanoma
# M14 melanoma = test system: M14 melanoma
# MDA-MB-231 breast = test system: MDA-MB-231 breast
# MDA-MB-435 = test system: MDA-MB-435
# NCI-H226 lung = test system: NCI-H226 lung
# NCI-H460 lung = test system: NCI-H460 lung
# NCI/ADR-RES ovarian = test system: NCI/ADR-RES ovarian
# OVCAR-4 ovarian = test system: OVCAR-4 ovarian
# RXF 393 renal = test system: RXF 393 renal
# SF-539 CNS = test system: SF-539 CNS
# SK-MEL-28 melanoma = test system: SK-MEL-28 melanoma
# SK-OV-3 ovarian = test system: SK-OV-3 ovarian
# SN12C renal = test system: SN12C renal
# SNB-75 CNS = test system: SNB-75 CNS
# SR leukemia = test system: SR leukemia
# SW-620 colon = test system: SW-620 colon
# TK-10 renal = test system: TK-10 renal
# U251 CNS = test system: U251 CNS
# HCC-2998 colon = test system: HCC-2998 colon
# HS 578T breast = test system: HS 578T breast
# MALME-3M melanoma = test system: MALME-3M melanoma
# NCI-H522 lung = test system: NCI-H522 lung
# T-47D breast = test system: T-47D breast
smiles,measurement,setting,value
Cc1ccc(Cl)c2c(=O)c3ccc([N+](=O)[O-])cc3sc12,TGI,786-0 renal,> 100 µM
same,TGI,A549 NSCLC,> 100 µM
same,TGI,ACHN renal,> 100 µM
same,TGI,BT-549 breast,> 100 µM
same,TGI,CAKI-1 renal,> 100 µM
same,TGI,COLO 205 colon,> 100 µM
same,TGI,DU-145 prostate,> 100 µM
same,TGI,HCT-116 colon,> 100 µM
same,TGI,HCT-15 colon,> 100 µM
same,TGI,HOP-62 NSCLC,> 100 µM
same,TGI,K-562 leukemia,> 100 µM
same,TGI,KM12 colon,> 100 µM
same,TGI,MCF7 breast,> 100 µM
same,TGI,MDA-N,> 100 µM
same,TGI,MOLT-4 leukemia,> 100 µM
same,TGI,NCI-H23 lung,> 100 µM
same,TGI,OVCAR-3 ovarian,> 100 µM
same,TGI,OVCAR-5 ovarian,> 100 µM
same,TGI,OVCAR-8 ovarian,> 100 µM
same,TGI,PC-3 prostate,> 100 µM
same,TGI,RPMI-8226 leukemia,> 100 µM
same,TGI,SF-295 CNS,> 100 µM
same,TGI,SK-MEL-2 melanoma,> 100 µM
same,TGI,SK-MEL-5 melanoma,> 100 µM
same,TGI,SNB-19 CNS,> 100 µM
same,TGI,UACC-257 melanoma,> 100 µM
same,TGI,UACC-62 melanoma,> 100 µM
same,TGI,UO-31 renal,> 100 µM
C/C=C(C)/C=C/CC(C)CCC=C(C)C (centres undefined),TGI,786-0 renal,> 100 µM
same,TGI,A498 renal,> 100 µM
same,TGI,A549 NSCLC,> 100 µM
same,TGI,ACHN renal,> 100 µM
same,TGI,BT-549 breast,> 100 µM
same,TGI,CAKI-1 renal,> 100 µM
same,TGI,CCRF-CEM leukemia,> 100 µM
same,TGI,COLO 205 colon,> 100 µM
same,TGI,DU-145 prostate,> 100 µM
same,TGI,EKVX NSCLC,> 100 µM
same,TGI,HCT-116 colon,> 100 µM
same,TGI,HCT-15 colon,> 100 µM
same,TGI,HL-60(TB) leukemia,> 100 µM
same,TGI,HOP-92 NSCLC,> 100 µM
same,TGI,HT29 colon,> 100 µM
same,TGI,IGROV1 ovarian,> 100 µM
same,TGI,K-562 leukemia,> 100 µM
same,TGI,KM12 colon,> 100 µM
same,TGI,LOX IMVI melanoma,> 100 µM
same,TGI,M14 melanoma,> 100 µM
same,TGI,MCF7 breast,> 100 µM
same,TGI,MDA-MB-231 breast,> 100 µM
same,TGI,MDA-MB-435,> 100 µM
same,TGI,MDA-N,> 100 µM
same,TGI,MOLT-4 leukemia,> 100 µM
same,TGI,NCI-H226 lung,> 100 µM
same,TGI,NCI-H460 lung,> 100 µM
same,TGI,NCI/ADR-RES ovarian,> 100 µM
same,TGI,OVCAR-3 ovarian,> 100 µM
same,TGI,OVCAR-4 ovarian,> 100 µM
same,TGI,OVCAR-5 ovarian,> 100 µM
same,TGI,OVCAR-8 ovarian,> 100 µM
same,TGI,RXF 393 renal,> 100 µM
same,TGI,SF-295 CNS,> 100 µM
same,TGI,SF-539 CNS,> 100 µM
same,TGI,SK-MEL-2 melanoma,> 100 µM
same,TGI,SK-MEL-28 melanoma,> 100 µM
same,TGI,SK-MEL-5 melanoma,> 100 µM
same,TGI,SK-OV-3 ovarian,> 100 µM
same,TGI,SN12C renal,> 100 µM
same,TGI,SNB-19 CNS,> 100 µM
same,TGI,SNB-75 CNS,> 100 µM
same,TGI,SR leukemia,> 100 µM
same,TGI,SW-620 colon,> 100 µM
same,TGI,TK-10 renal,> 100 µM
same,TGI,U251 CNS,> 100 µM
same,TGI,UACC-257 melanoma,> 100 µM
same,TGI,UACC-62 melanoma,> 100 µM
same,TGI,UO-31 renal,> 100 µM
S=C1SC(=Nc2ccccc2)C(=Nc2ccccc2)N1c1ccccc1,TGI,A498 renal,> 100 µM
same,TGI,BT-549 breast,> 100 µM
same,TGI,CAKI-1 renal,> 100 µM
same,TGI,CCRF-CEM leukemia,> 100 µM
same,TGI,COLO 205 colon,> 100 µM
same,TGI,DU-145 prostate,> 100 µM
same,TGI,HCC-2998 colon,> 100 µM
same,TGI,HCT-116 colon,> 100 µM
same,TGI,HCT-15 colon,> 100 µM
same,TGI,HOP-62 NSCLC,> 100 µM
same,TGI,HS 578T breast,> 100 µM
same,TGI,HT29 colon,> 100 µM
same,TGI,IGROV1 ovarian,> 100 µM
same,TGI,K-562 leukemia,> 100 µM
same,TGI,KM12 colon,> 100 µM
same,TGI,M14 melanoma,> 100 µM
same,TGI,MALME-3M melanoma,> 100 µM
same,TGI,MCF7 breast,> 100 µM
same,TGI,MDA-MB-231 breast,> 100 µM
same,TGI,MDA-MB-435,> 100 µM
same,TGI,MDA-N,> 100 µM
same,TGI,MOLT-4 leukemia,> 100 µM
same,TGI,NCI-H226 lung,> 100 µM
same,TGI,NCI-H23 lung,> 100 µM
same,TGI,NCI-H460 lung,> 100 µM
same,TGI,NCI-H522 lung,> 100 µM
same,TGI,NCI/ADR-RES ovarian,> 100 µM
same,TGI,OVCAR-3 ovarian,> 100 µM
same,TGI,OVCAR-4 ovarian,> 100 µM
same,TGI,OVCAR-5 ovarian,> 100 µM
same,TGI,OVCAR-8 ovarian,> 100 µM
same,TGI,PC-3 prostate,> 100 µM
same,TGI,RPMI-8226 leukemia,> 100 µM
same,TGI,RXF 393 renal,> 100 µM
same,TGI,SF-295 CNS,> 100 µM
same,TGI,SK-MEL-2 melanoma,> 100 µM
same,TGI,SK-MEL-28 melanoma,> 100 µM
same,TGI,SK-MEL-5 melanoma,> 100 µM
same,TGI,SK-OV-3 ovarian,> 100 µM
same,TGI,SN12C renal,> 100 µM
same,TGI,SNB-19 CNS,> 100 µM
same,TGI,SNB-75 CNS,73.7 µM
same,TGI,SR leukemia,> 100 µM
same,TGI,T-47D breast,> 100 µM
same,TGI,U251 CNS,> 100 µM
same,TGI,UACC-62 melanoma,> 100 µM
same,TGI,UO-31 renal,> 100 µM
